Reference: patent US20240024273A1, “TOPICAL ADMINISTRATION OF 2-(DIETHYLAMINO)ETHYL 2-(4-ISOBUTYLPHENYL)PROPRIONATE FOR TREATMENT OF DISEASES” (TECHFIELDS PHARMA CO., LTD., priority 2020, published 2024)

System: Subjects with Osteoarthritis of the Knee
Test: Second Phase 2 study: safety (treatment-emergent adverse events)
Format: in vivo, human
Settings: for Adverse events of special interest, Events / Adverse events of special interest, Subjects, number (%) / Local skin reactions around the treated knees, Events / Local skin reactions around the treated knees, Subjects, number (%) / Requires hospitalization, Events / Requires hospitalization, Subjects, number (%) / Results in death, number (%) / Serious treatment-emergent adverse events, Events / Serious treatment-emergent adverse events, Subjects, number (%) / Severe treatment-emergent adverse events, Events / Severe treatment-emergent adverse events, Subjects, number (%) / To be discontinued from the study due to adverse events, Events / To be discontinued from the study due to adverse events, Subjects, number (%) / To be discontinued from the treatment temporarily due to adverse events, Events / To be discontinued from the treatment temporarily due to adverse events, Subjects, number (%) / Treatment-emergent adverse events, Events / Treatment-emergent adverse events, Subjects, number (%): All Causalities
Excerpt: Safety assessments will be performed at each visit and will include assessment of AEs, vital signs (blood pressure, pulse rate, and oral temperature), clinical laboratories, physical examination, skin irritation, and electrocardiograms (ECGs) as indicated in the study flow chart, Table 47.
Safety assessments will include AEs, vital signs (blood pressures, pulse rate, and oral temperature), clinical laboratories, physical examination, skin irritation, and ECGs at various time points during the study as indicated in the study flow chart.
Adverse events of interest include: local skin reactions around the treated knee(s), upper stomach pain, GI bleeding, serious cardiovascular side effects (e.g., thrombotic events, myocardial infarction, or stroke), jaundice, elevated liver function tests, and nausea.
Safety analyses will be conducted on the SAS. Safety parameters will be listed and summarized using standard descriptive statistics, as appropriate. No formal statistical analyses are planned.

[1] = moderate adverse events, 4.375 mg/knee, BID, N = 71

## CCN(CC)CCOC(=O)C(C)c1ccc(CC(C)C)cc1 (stereo not drawn) [2-(diethylamino)ethyl 2-(4-isobutylphenyl)propionate]
17.5 mg/knee, BID, N = 70
  Aspartate Aminotransferase Increased: number of adverse events: 1
  Aspartate Aminotransferase Increased: percentage of subjects with adverse events: 1.4%
  Aspartate Aminotransferase Increased: subjects with adverse events: 1
  Back Pain: number of adverse events: 1(%)[1]
  Back Pain: subjects with adverse events, number (percentage): 1(%)[1]
  Constipation: number of adverse events: 1
  Constipation: percentage of subjects with adverse events: 1.4%
  Constipation: subjects with adverse events: 1
  Cough: number of adverse events: 2
  Cough: subjects with adverse events, number (percentage): 2(2.9%)
  Dizziness: number of adverse events: 1
  Dizziness: subjects with adverse events, number (percentage): 1(1.4%)
  Frequency of Positive Fecal Occult Blood Test: 5
  Gastrointestinal Disorders: number of adverse events: 5
  Gastrointestinal Disorders: percentage of subjects with adverse events: 5.7%
  Gastrointestinal Disorders: subjects with adverse events: 4
  Gout: number of adverse events: 1
  Gout: percentage of subjects with adverse events: 1.4%
  Gout: subjects with adverse events: 1
  Headache: number of adverse events: 1
  Headache: subjects with adverse events, number (percentage): 1(1.4%)
  Hypercholesterolaemia: number of adverse events: 2
  Hypercholesterolaemia: percentage of subjects with adverse events: 2.9%
  Hypercholesterolaemia: subjects with adverse events: 2
  Hypertriglyceridemia: number of adverse events: 6
  Hypertriglyceridemia: percentage of subjects with adverse events: 8.6%
  Hypertriglyceridemia: subjects with adverse events: 6
  Infections and Infestations: number of adverse events: 14
  Infections and Infestations: subjects with adverse events, number (percentage): 13(18.6%)
  Investigations: number of adverse events: 1
  Investigations: percentage of subjects with adverse events: 1.4%
  Investigations: subjects with adverse events: 1
  Metabolism and Nutrition Disorders: number of adverse events: 9
  Metabolism and Nutrition Disorders: percentage of subjects with adverse events: 11.4%
  Metabolism and Nutrition Disorders: subjects with adverse events: 9
  Muscle Spasms: number of adverse events: 3
  Muscle Spasms: subjects with adverse events, number (percentage): 2
  Musculoskeletal Pain: number of adverse events: 2
  Musculoskeletal Pain: subjects with adverse events, number (percentage): 1
  Musculoskeletal and Connective Tissue Disorders, Overall Total: number of adverse events: 8
  Musculoskeletal and Connective Tissue Disorders, Overall Total: subjects with adverse events, number (percentage): 6(8.6%)
  Neck Pain: number of adverse events: 1(%)[1]
  Neck Pain: subjects with adverse events, number (percentage): 1(%)[1]
  Nervous System Disorders: number of adverse events: 2
  Nervous System Disorders: subjects with adverse events, number (percentage): 2(2.9%)
  Pain in Extremity: number of adverse events: 1(%)[1]
  Pain in Extremity: subjects with adverse events, number (percentage): 1(%)[1]
  Rash: number of adverse events: 2
  Rash: percentage of subjects with adverse events: 4.2%
  Rash: subjects with adverse events: 2
  Respiratory, Thoracic and Mediastinal Disorders: number of adverse events: 2
  Respiratory, Thoracic and Mediastinal Disorders: subjects with adverse events, number (percentage): 2(2.9%)
  Skin Irritation: number of adverse events: 4
  Skin Irritation: percentage of subjects with adverse events: 1.4%
  Skin Irritation: subjects with adverse events: 3
  Skin and Subcutaneous Tissue Disorders: number of adverse events: 6
  Skin and Subcutaneous Tissue Disorders: percentage of subjects with adverse events: 7.1%
  Skin and Subcutaneous Tissue Disorders: subjects with adverse events: 5
  Subjects with Positive Fecal Occult Blood Test: 5
  Subjects with Positive Fecal Occult Blood Test, percentage: 7.1%
  Toothache: number of adverse events: 1
  Toothache: percentage of subjects with adverse events: 1.4%
  Toothache: subjects with adverse events: 1
  Upper Respiratory Tract Infection: number of adverse events: 5
  Upper Respiratory Tract Infection: subjects with adverse events, number (percentage): 5(7.1%)
  Urinary Tract Infection: number of adverse events: 9
  Urinary Tract Infection: subjects with adverse events, number (percentage): 8(11.4%)
4.375 mg/knee BID, n = 71
  Adverse events of special interest, Events: 16
  Adverse events of special interest, Subjects, number (%): 11 (15.5%)
  Local skin reactions around the treated knees, Events: 1
  Local skin reactions around the treated knees, Subjects, number (%): 1 (1.4%)
  Requires hospitalization, Events: 0
  Requires hospitalization, Subjects, number (%): 0
  Results in death, number (%): 1 (1.4%)
  Serious treatment-emergent adverse events, Events: 1
  Serious treatment-emergent adverse events, Subjects, number (%): 1 (1.4)
  Severe treatment-emergent adverse events, Events: 1
  Severe treatment-emergent adverse events, Subjects, number (%): 1 (1.4%)
  To be discontinued from the study due to adverse events, Events: 1
  To be discontinued from the study due to adverse events, Subjects, number (%): 1 (1.4%)
  To be discontinued from the treatment temporarily due to adverse events, Events: 1
  To be discontinued from the treatment temporarily due to adverse events, Subjects, number (%): 1 (1.4%)
  Treatment-emergent adverse events, Events: 68
  Treatment-emergent adverse events, Subjects, number (%): 41 (57.7%)
8.75 mg/knee BID, n = 70
  Adverse events of special interest, Events: 12
  Adverse events of special interest, Subjects, number (%): 10 (14.3)
  Local skin reactions around the treated knees, Events: 1
  Local skin reactions around the treated knees, Subjects, number (%): 1 (1.4%)
  Requires hospitalization, Events: 1
  Requires hospitalization, Subjects, number (%): 1 (1.4%)
  Results in death, number (%): 0
  Serious treatment-emergent adverse events, Events: 1
  Serious treatment-emergent adverse events, Subjects, number (%): 1 (1.4)
  Severe treatment-emergent adverse events, Events: 1
  Severe treatment-emergent adverse events, Subjects, number (%): 1 (1.4%)
  To be discontinued from the study due to adverse events, Events: 0
  To be discontinued from the study due to adverse events, Subjects, number (%): 0
  To be discontinued from the treatment temporarily due to adverse events, Events: 1
  To be discontinued from the treatment temporarily due to adverse events, Subjects, number (%): 1 (1.4%)
  Treatment-emergent adverse events, Events: 71
  Treatment-emergent adverse events, Subjects, number (%): 39 (55.7%)
17.5 mg/knee BID, n = 70
  Adverse events of special interest, Events: 14
  Adverse events of special interest, Subjects, number (%): 11 (15.7)
  Local skin reactions around the treated knees, Events: 5
  Local skin reactions around the treated knees, Subjects, number (%): 4 (5.7%)
  Requires hospitalization, Events: 0
  Requires hospitalization, Subjects, number (%): 0
  Results in death, number (%): 0
  Serious treatment-emergent adverse events, Events: 0
  Serious treatment-emergent adverse events, Subjects, number (%): 0
  Severe treatment-emergent adverse events, Events: 0
  Severe treatment-emergent adverse events, Subjects, number (%): 0
  To be discontinued from the study due to adverse events, Events: 1
  To be discontinued from the study due to adverse events, Subjects, number (%): 1 (1.4%)
  To be discontinued from the treatment temporarily due to adverse events, Events: 0
  To be discontinued from the treatment temporarily due to adverse events, Subjects, number (%): 0
  Treatment-emergent adverse events, Events: 52
  Treatment-emergent adverse events, Subjects, number (%): 30 (42.9%)
All three doses (4.375, 8.75, 17.5 mg/knee BID)
  safety and tolerability: appeared to be safe and were generally well tolerated
In vivo
  skin irritation incidences, total (all mild): 9
In vivo, po
  overall safety vs oral ibuprofen: safer than oral ibuprofen
[1]
  Gastroenteritis: number of adverse events: 1
  Gastroenteritis: percentage of subjects with adverse events: 1.4%
